# Where “and” joins values, the source holds several entries; their conditions need not be identical. Equal entries are not always repeated.
# Settings: [M+H]+; instrument: DT; single field, calibrated with Agilent tune mix (Agilent)
row,collision cross section (N2),SMILES
1,188.6 Å²,C[C@]12CCC(=O)C=C1CC[C@@H]1[C@@H]2C(=O)C[C@@]2(C)[C@H]1CC[C@]2(O)C(=O)CO [Cortisone]

# Same assay, conditions: [M-H2O-H]-; instrument: DT; single field, calibrated with Agilent tune mix (Agilent)
row,collision cross section (N2),SMILES
1,180.07 Å²,C[C@]12CCC(=O)C=C1CC[C@@H]1[C@@H]2C(=O)C[C@@]2(C)[C@H]1CC[C@]2(O)C(=O)CO [Cortisone]

# Settings: [M+Na]+; instrument: DT; stepped-field
row,collision cross section (N2),SMILES
1,164.17 Å²,c1ccc2[nH]c(-c3cscn3)nc2c1 [Thiabendazole]

# Settings: [M+NH4]+; instrument: DT; single field, calibrated with Agilent tune mix (Agilent)
row,collision cross section (N2),SMILES
1,319.9 Å²,CC/C=C\C/C=C\C/C=C\C/C=C\CCCCC(=O)O[C@H](COC(=O)CCCCCCC/C=C\CCCCCCC)COC(=O)CCCCCCC/C=C\CCCCCCCCC [TG(54:6)]
2,323.6 Å²,CCCCCCCC/C=C\CCCCCCCCCC(=O)OC[C@@H](COC(=O)CCCCCCCCCCCC)OC(=O)CCCCCCCCC/C=C\CCCCCCCC [TG(53:2)]
3,257.9 Å²,CCCC/C=C\C/C=C\CCCCCCCC(=O)O[C@@H](CO)COC(=O)CCCCCCCCCCCCCCCC [DG(34:2)]
4,310.9 Å²,CCCCCCCCCC/C=C\CCCCCCCCCC(=O)OC[C@@H](COC(=O)CCCCCCCCCCCC)OC(=O)CCCCCCCCCCCC [TG(48:1)]
5,336.6 Å²,CCCCC/C=C\C/C=C\C/C=C\CCCCCCCCC(=O)OC[C@@H](COC(=O)CCCCCCC/C=C\CCCCCCC)OC(=O)CCCCCCCCCCCCCCCCCC [TG(58:4)]

# Settings: [M+H]+; instrument: DT; single field
row,collision cross section (N2),SMILES
1,301.97 Å²,CCCCCCCCCCCCC=CCC=CCC=CCC=CCC(=O)N[C@@H](COP(=O)([O-])OCC[N+](C)(C)C)[C@H](O)CC=CCCCCCCCCCCCC [SM(43:5)]

# Same assay, conditions: [M+NH4]+; instrument: DT; single field
row,SMILES,collision cross section (N2)
1,CCCCCC/C=C\CCCCCCCC(=O)OC[C@@H](COC(=O)CCCCCCCCCCC)OC(=O)CCCCCCCCCCC [TG(40:1)],282.64 Å² and 284.9 Å²
2,CCCCCCCC/C=C\CCCCCCCCCC(=O)O[C@@H](CO)COC(=O)CCCCCCCCCCC [DG(32:1)],255.8 Å²
3,CCCC/C=C\CCCCCCCC(=O)OC[C@H](COC(=O)CCCCCCCCCCCCCCCCCCCCC)OC(=O)CCCCCCCCCCCCCCCCCCCCC [TG(58:1)],342.62 Å² and 345.63 Å² and 341.8 Å²

# The next lines start with the values.
row,collision cross section (N2),SMILES
1,334.9 Å² and 337.31 Å² and 332.94 Å²,CCCCC/C=C\CCCCCCCC(=O)OC[C@H](COC(=O)CCCCCCCCCCCCCCCCCCC)OC(=O)CCCCCCCCCCCCCCCCCCC [TG(55:1)]
2,257.59 Å² and 259.54 Å²,CCCC/C=C\C/C=C\CCCCCCCC(=O)O[C@@H](CO)COC(=O)CCCCCCCCCCCCCCCC [DG(34:2)]
3,340.43 Å² and 336.2 Å²,CCCCC/C=C\C/C=C\C/C=C\CCCCCCCCC(=O)OC[C@@H](COC(=O)CCCCCCC/C=C\CCCCCCC)OC(=O)CCCCCCCCCCCCCCCCCC [TG(58:4)]
4,259.31 Å²,CCCCC/C=C\C/C=C\C/C=C\C/C=C\CCCC(=O)O[C@@H](CO)COC(=O)CCCC/C=C\C/C=C\C/C=C\CCCCC [DG(38:7)]
5,339.13 Å²,CCCCC/C=C\C/C=C\C/C=C\C/C=C\CCCC(=O)O[C@@H](COC(=O)CCCCCCCCCCC/C=C\C/C=C\CCCCC)COC(=O)CCCCCCCCCCCCCCCC [TG(59:6)]
6,266.74 Å²,CC/C=C\C/C=C\C/C=C\C/C=C\C/C=C\CCCCCC(=O)O[C@@H](CO)COC(=O)CCCC/C=C\C/C=C\C/C=C\CCCCC [DG(40:8)]
7,257.21 Å²,CCCCC/C=C\C/C=C\C/C=C\CCCCC(=O)OC[C@H](CO)OC(=O)CCCCCCC/C=C\CCCCCCCC [DG(36:4)]
8,254.91 Å²,CCCC/C=C\CCCCCCCC(=O)OC[C@H](CO)OC(=O)CCCCC/C=C\C/C=C\C/C=C\C/C=C\CCCCC [DG(36:5)]
9,321.77 Å²,CC/C=C\C/C=C\C/C=C\CCCCCCCC(=O)O[C@@H](COC(=O)CCC/C=C\C/C=C\C/C=C\C/C=C\CCCCC)COC(=O)CCCCCCC/C=C\C/C=C\CCCCC [TG(56:9)]
10,249.72 Å²,CCCCC/C=C\C/C=C\CCCCCCCC(=O)O[C@@H](CO)COC(=O)CCCCCCCCCCCC [DG(31:2)]
11,340.07 Å² and 342.55 Å²,CCCCCCCCC/C=C\CCCCCCCC(=O)OC[C@@H](COC(=O)CCCCCCCCCCCCCCCCCC)OC(=O)CCCCCCCCCCCCCCCCCC [TG(57:1)]
12,261.08 Å²,CCCCC/C=C\C/C=C\C/C=C\CCCCCCCCC(=O)O[C@@H](CO)COC(=O)CCCCCCCCCCCCC [DG(36:3)]
13,340.53 Å² and 343 Å²,CCCCC/C=C\C/C=C\C/C=C\CCCCCCCCC(=O)OC[C@@H](COC(=O)CCCCCCCCCCCCCCCCC)OC(=O)CCCCCCC/C=C\CCCCCCCCC [TG(59:4)]

# Same assay, conditions: [M+Na]+; instrument: DT; single field
row,SMILES,collision cross section (N2)
1,CCCCC/C=C\CCCCCCCC(=O)OC[C@H](COC(=O)CCCCCCC/C=C\CCCCCCCCC)OC(=O)CCCCCCC/C=C\CCCCCCCCC [TG(53:3)],319.33 Å² and 321.38 Å²
2,CCCCCC/C=C\CCCCCCCC(=O)OC[C@@H](COC(=O)CCCCCCCCCCC)OC(=O)CCCCCCCCCCC [TG(40:1)],280.45 Å² and 283.77 Å²

# Second part, the molecule after the results:
row,collision cross section (N2),SMILES
1,316.05 Å² and 318.28 Å²,CC/C=C\C/C=C\C/C=C\C/C=C\CCCCC(=O)O[C@H](COC(=O)CCCCCCC/C=C\CCCCCCC)COC(=O)CCCCCCC/C=C\CCCCCCCCC [TG(54:6)]
2,321.52 Å² and 323.87 Å²,CCCCCCCC/C=C\CCCCCCCCCC(=O)OC[C@@H](COC(=O)CCCCCCCCCCCC)OC(=O)CCCCCCCCC/C=C\CCCCCCCC [TG(53:2)]
3,315.05 Å² and 316.8 Å²,CCCCCCCCCC/C=C\CCCCCCCCCC(=O)OC[C@@H](COC(=O)CCCCCCCCCCCCC)OC(=O)CCCCCCCCCCCCC [TG(50:1)]
4,308.88 Å² and 310.77 Å²,CCCCCCCCCC/C=C\CCCCCCCCCC(=O)OC[C@@H](COC(=O)CCCCCCCCCCCC)OC(=O)CCCCCCCCCCCC [TG(48:1)]
5,317.97 Å² and 320.06 Å²,CCCCCCCCC/C=C\CCCCCCCC(=O)OC[C@@H](COC(=O)CCCCCCCCCCCCCCC)OC(=O)CCCCCCCCCCCCCCC [TG(51:1)]
6,302.27 Å² and 304.44 Å²,CCCCCCCCCC/C=C\CCCCCCCCCC(=O)OC[C@@H](COC(=O)CCCCCCCCCCC)OC(=O)CCCCCCCCCCC [TG(46:1)]

# Settings: [M+H]+; instrument: TW
row,SMILES,collision cross section (N2)
1,C[C@]12CCC(=O)C=C1CC[C@@H]1[C@@H]2C(=O)C[C@@]2(C)[C@H]1CC[C@]2(O)C(=O)CO [Cortisone],184 Å²
2,c1ccc2[nH]c(-c3cscn3)nc2c1 [Thiabendazole],136.19 Å²
3,Cn1c([N+](=O)[O-])cnc1COC(N)=O [Ronidazole],131.6 Å²
4,CCOC(=O)OC1=C(c2cc(C)ccc2C)C(=O)NC12CCC(OC)CC2 (configuration not stated) [Spirotetramat],189.99 Å²
5,CC1(C)CC/C(=C\c2ccc(Cl)cc2)C1(O)Cn1cncn1 (configuration not stated) [Triticonazole],179.18 Å²
6,O=C(NC(=O)c1ccccc1Cl)Nc1ccc(OC(F)(F)F)cc1 [Triflumuron],169.88 Å²
7,CCn1cc(C(=O)O)c(=O)c2ccc(C)nc21 [Nalidixic acid],141.4 Å²
8,Nc1ccc(S(=O)(=O)Nc2ncccn2)cc1 [Sulfadiazine],148.7 Å²
9,C#CCOc1ccc(CCNC(=O)C(OCC#C)c2ccc(Cl)cc2)cc1OC (configuration not stated) [Mandipropamid],195.15 Å²
10,CSC1=N[C@@](C)(c2ccccc2)C(=O)N1Nc1ccccc1 [Fenamidone],171.15 Å²
11,CC(C)(C)NCC(O)c1ccc(O)c(CO)c1 (configuration not stated) [Salbutamol],158.3 Å²
12,Cc1cnc(/N=C(\O)C2=C(O)c3ccccc3S(=O)(=O)N2C)s1 [Meloxicam],174.9 Å²
13,CC1(C(=O)Nc2ccc(O)c(Cl)c2Cl)CCCCC1 [Fenhexamid],164.82 Å²
14,Cc1ccsc1/C=C/C1=NCCCN1C [Morantel],149.7 Å²
15,CC(C)NCC(O)COc1cccc2[nH]c3ccccc3c12 (configuration not stated) [Carazolol],165.5 Å²
16,CCC[C@@H]1C[C@@H](C(=O)N[C@@H]([C@H]2O[C@H](SC)[C@H](O)[C@@H](O)[C@H]2O)[C@@H](C)O)N(C)C1 [Lincomycin],201.8 Å²
17,O=C(NC(=O)c1c(F)cccc1F)Nc1cc(Cl)c(OC(F)(F)C(F)F)c(Cl)c1 [Hexaflumuron],188.22 Å²

row,SMILES,collision cross section (N2)
1,CCOP(=S)(OCC)Oc1cnc2ccccc2n1 [Quinalphos],165.1 Å²
2,C=C1C[C@@]23CC[C@H]4[C@@](C)(CCC[C@@]4(C)C(=O)O[C@@H]4O[C@H](CO)[C@@H](O)[C@H](O)[C@H]4O)[C@@H]2CC[C@]1(O[C@@H]1O[C@H](CO)[C@@H](O)[C@H](O)[C@H]1O[C@@H]1O[C@@H](C)[C@H](O)[C@@H](O)[C@H]1O)C3 [Dulcoside A],270.75 Å²
3,O=C(NC(=O)c1c(F)cccc1F)Nc1cc(Cl)c(OC(F)(F)C(F)C(F)(F)F)cc1Cl (configuration not stated) [Lufenuron],198.53 Å²
4,CC(C)c1ccc(NC(=O)N(C)C)cc1 [Isoproturon],150.75 Å²
5,Clc1ccccc1-c1nnc(-c2ccccc2Cl)nn1 [Clofentezine],161.9 Å²
6,CCS(=O)(=O)CCSP(=O)(OC)OC [Demeton-S-methyl- sulfone],143.66 Å²
7,COc1ncnc(NS(=O)(=O)c2ccc(N)cc2)c1OC [Sulfadoxine],166.6 Å²
8,OC(Cn1cncn1)(c1ccc(F)cc1)c1ccccc1F (configuration not stated) [Flutriafol],163.97 Å²
9,Cc1cc(C)nc(Nc2ccccc2)n1 [Pyrimethanil],142.95 Å²
10,CC[C@H]1OC(=O)C[C@@H](O)[C@H](C)[C@@H](O[C@@H]2O[C@H](C)[C@@H](O[C@H]3C[C@@](C)(O)[C@@H](O)[C@H](C)O3)[C@H](N(C)C)[C@H]2O)[C@@H](CC=O)C[C@@H](C)C(=O)/C=C/C(C)=C/[C@@H]1CO[C@@H]1O[C@H](C)[C@@H](O)[C@@H](OC)[C@H]1OC [Tylosine],332.4 Å²
11,CON(C)C(=O)Nc1ccc(Br)c(Cl)c1 [Chlorbromuron],152.25 Å²
12,C[C@H](NCCc1ccc(O)cc1)[C@H](O)c1ccc(O)cc1 [Ritodrine],165.8 Å²
13,Ic2ccc1\N=C(\OCCC)N(C(=O)c1c2)CCC [Proquinazid],169.35 Å²
14,CC1(C)CCC(Cc2ccc(Cl)cc2)C1(O)Cn1cncn1 (configuration not stated) [Metconazole],168.62 Å²
15,C=C(C)C1Cc2c(ccc3c2OC2COc4cc(OC)c(OC)cc4C2C3=O)O1 (configuration not stated) [Rotenone],195.01 Å²
16,C[C@]12C=CC3=C4CCC(=O)C=C4CC[C@H]3[C@@H]1CC[C@@H]2O [17B-Trenbolone],163.3 Å²
17,COc1nc(C)nc(NC(=O)NS(=O)(=O)c2ccccc2Cl)n1 [Chlorsulfuron],175.29 Å²

# Source: the C3SDB collision cross section collection
